“Also recorded” adds a separate entry of the source.
B1: EX54: CYP719 from Chelidonium majus, SEQ ID NO: 333 (protein, listed as Chelidonium majus)
chain: MEESFWLVAATVLVVFVVAKLLFRKSSSISTMEWPAGPKTLPIIGNLHQLGGAALHVVLANLAKVYGSVMTIWVGAWRPMIVISDIDKAWEVLVNKSSDYSARSLPEITRIISANWKNIMTSDSGPFWQNLRKGLQGGALSPHNVMSQYQLQERDMQNLIKTMRVEASKNNGRIKPLDHLKQETVRLLSRLIFGQDFNDEKLVVGMHHALDDLVRISGYASLADAFKVAENLPSHKKSIREVHELKRRVENLVRPHIVSNPPTNTYLNFLLSQNFSEDLIISAILEVYDLGVDSTASTTVWALTFLVREQKVQEKLYQEIKNLTGGRSTVKVEEVSKMPYLQAVMKETMRMKPIAPMAIPHTAARETSLMGKKIDKGTVVMVNLYAIHHNPNIFPEPYKFMPERFLHGEEQNGGNIKEMEQSLLPFSAGMRICAGMELGKLQLGFALASLVNAFKWECAADGKLPDLSEDHCFILLMKNPLEAKITPRTH
B2: EX50: CYP719 from Coptis japonica, Q948Y1.1, SEQ ID NO: 329 (protein, listed as Coptis japonica)
chain: MEMNPLLVCATVAIVFATTTIIRILFSSSSLPQMKWPSGPRKLPIIGNLHQLGDDVLHVALAKLAKVHGSVMTIWIGSWRPVIVISDIEKAWEVLVNKSADYGARDMPEITKIASASWHTISTSDAGSFWQNVRKGLQSGAMGPLNVAAQNQYQERDMKRLIKAMSDEAANNNGIVKPLDHIKKNTVRLLTRLIFGQAFDDNKFIESMHYEIEDIIRISGYARLAEAFYYAKYLPSHKKAEREAFLVKCRVEELVRPLLSSKPPTNSYLYFLLSQNFEEEVIIFCIFELYLLGVDSTSSTTTWALAYLIREQGAQEKLYQDIRMTLGDVDLVKIEDVNKLKYLQGVVKETMRMKPIAPLAIPHKTAKETTLMGTKVAKGTRIMVNLYALHHNQNIWPDPYKFMPERFLEGETGTAYNKAMEQSFLPFSAGMRICAGMDLGKLQFAFALANLVNAFKWSCVEEGKLPDMGEELSFVLLMKTPLEARIAGRNV
B3: EX60: CYP719 from Eschscholzia californica, BAG75114.1, SEQ ID NO: 339 (protein, listed as Eschscholzia californica)
chain: MEEMKFLMMNNPWVLTATFTTLLISIFLFVTRKTSNTEWPNGPKTLPIIGNMHLLGGTKALQVILHNLAKVYGGVMTIWIGSWRPVIIVSDIERAWEVLVNKSSDYSARELPEIIKYNAANFRTIATCDSGPHWSNLRKGLQNVALSPHNLAAQFQFQEKDITKMIQNLEVEAKNNNGIVQPLDHLKKATIRLISRLIFGQDFDEDTYVEKLHHTIDELIRMSGYAQLAEAFYYARYLPNHKKAVNHAAKTKQIVTHLMRPFLSLNPPTNSYLHFLQSQNYDEELIIFSIFEVYLLGVDSTSSTTAWALAYLVREPNVQETLYQELDNFAKQNDRKILKVEDINKLQYLQAVTKETMRMKPIAPLAIPHKASRDTTLMGKKVEKGTKVMVNLHALHHNENVFNDPYKFMPERFLKSYQGAKAKAMEQSYLPFSAGMRICGGMEVGKLQFGFALANLAYAFKWSCAVNGVLPDMSDELGFVLFMKTPLEARIVRRN
B4: EX98: CYP719 from Stylophorum diphyllum, SEQ ID NO: 377 (protein, listed as Stylophorum diphyllum)
chain: MEESFWLVTATVVVVFVIAKLQFRKSSSISTMEWPAGPKTLPIIGNLHQLGGAALHVVLANLAKAYGSVMTIWVGSWRPMIVISDFDKAWEVLVNKSSDYSARSLPEITRIISANWKNIMTSDSGPFWQNLRKGLQSGALSPHNVMSQYQLQERDMQNLIKTMRVEAFKNNGRIKPLDHLKQETVRLLSRLIFGQDFNDEKLVVGMHHALDDLVRISGYASLADAFKFAENLPSHKKSIREVHELKKRVENLVRPHIVSNPPTNTYLNFLQSQNFSEDLIISAILEVYDLGVDSTASTTVWALTFLVRELKVQEKLYQEIKNLTGGRSTVKVEEVSKMPYLQAVMKETMRMKPIAPMAIPHTAARETSLMGKKIDKGTVVMVNLYAIHHNPNIFPEPYKFMPERFLHGEEQNGGNIKEMEQSLLPFSAGMRICAGMELGKLQLGFALASLVNAFKWECAVDGKLPDMSEDHCFILLMKNPLEAKITPRTH
B5: EX72: CYP719 from Nandina domestica, SEQ ID NO: 351 (protein, listed as Nandina domestica)
chain: MDPMSLWAAIAIVLVMTLLVLLQTRTKSLPSSSTQWPTGPKTLPIIGNLHQLEGDVFHVALAKLAKMHGDIMTIWIGSWRPVIVISDYDKAWEVLVNKSSDYSARDMPEITKIASAGWRTISLSSSGPFWHTLRKGLQNGPFGPLNVSAQILSQERDMRRMIRDMQEEADINGGIVKPLGHLKKATVGLLTRLIFGQNFDDDSFIESIHHETEELIRISGYARLAEAFSYAKYLPSHRRAVKESYECKHRVEELVKPLLSSNPPKNSYLNFLQSQDYPEEVIIFCIFEIYLLGVDSTSSTTTWALAFLIHEPAVQEKLYQEVKCITNGDGGLVKAGDLSKFQYLQAVMKETMRMKPIAPLAIPHTTSKDTTLMGTKVAKGTRIMVNLYALHHNPNIWSEPFKFMPERFLQEQFNGVGGDANVKAIEQSFLPFSAGMRICAGMDLGKLQFSFALANLVNAFKWTTVADGKFPDMNEELSFVLLMKTPLEARIVPRKP

Assays:
Type in all cases: cell-based, Saccharomyces cerevisiae
[1] = Relative abundance of BIAs in culture supernatants and cell extracts; conditions: for fraction in which the BIA is mainly found (supernatant or cell extract): strains with heterologous enzymes
Method: Whole cell substrate feeding assays were used to test the function of each enzyme block individually and in combinations. To prepare the cells for the feeding assays, a colony of S. cerevisiae was inoculated in YNB-DO-GLU and incubated for 24 hours. Cultures were diluted to an OD600 of 0.8 into 6 ml of fresh YNB-DO-GLU and incubated for an additional 7 hours. Cells were harvested by centrifugation at 2000×g for 2 min. Supernatants were decanted and cells were suspended in 2 ml of Tris-EDTA (10 mM Tris-HCl, 1 mM EDTA, pH 8), containing 10 μM of one of the following feeding substrates: (R,S)-norlaudanosoline, (S)-reticuline, (S)-scoulerine or (S)-stylopine. Cells were incubated for 16 hours then harvested by centrifugation at 15000×g for 1 min. For BIA extraction from cells, the cell pellet was suspended in 500 μl methanol with ˜50 μl acid-washed glass beads and vortexed for 30 min. Cell extracts were clarified by centrifugation at 15000×g for 1 min and used directly for LC-MS analysis.
Detection of alkaloids in the sanguinarine biosynthetic pathway was performed by FT-MS using a 7T-LTQ FT ICR instrument (Thermo Scientific, Bremen, Germany). Alkaloids were separated by reverse phase HPLC (Perkin Elmer SERIES 200 Micropump, Norfolk, Conn.) using an Agilent Zorbax™ Rapid Resolution HT C18 2.1*30 mm, 1.8 micron column. Solvent A (0.1% acetic acid) and solvent B (100% acetonitrile) were used in a gradient elution to separate the metabolites of interest as follows: 0-1 min at 100% A, 1-6 min 0 to 95% B (linear gradient), 7-8 min 95% B, 8-8.2 min 100% A, followed by a 1 min equilibration at 100% A. Three microliters of either cell extract or supernatant fraction were loaded on the HPLC column run at a flow rate of 0.25 ml/min. Dilutions in methanol were performed to keep alkaloid concentrations within the range of standard curve values and avoid saturating FT signals. Following LC separation, metabolites were injected into the LTQ-FT-MS (ESI source in positive ion mode) using the following parameters: resolution, 100000; scanning range, 250 to 450 AMU; capillary voltage, 5 kV; source temperature, 350° C.; AGC target setting for full MS were set at 5×10^5 ions. Identification of alkaloids was done using retention time and exact mass (<2 ppm) of the monoisotopic mass of the protonated molecular ion [M+H]^+. LC-FT-MS data were processed using the freely available program Maven^56. When available authentic standards were used to confirm the identity of the BIA intermediates (using HPLC retention times and exact masses) and to quantify sanguinarine alkaloids. When unavailable, we assumed equal ionization efficiency between an intermediate and the closest available quantifiable alkaloid (m/z 302 and m/z=316: reticuline; cheilanthifoline: stylopine).
To confirm functional expression of enzymes, plasmids expressing each of the three blocks were individually transformed into S. cerevisiae and cultures of the strains were supplemented with either (R,S)-norlaudanosoline, (S)-reticuline, (S)-scoulerine or (S)-stylopine. Functional expression was verified by detection of the expected end products. As negative controls, yeast strains lacking enzyme blocks were incubated with each of the pathway intermediate to evaluate substrate recovery and to assess the relative proportion recovered in cellular extracts versus culture supernatants.

[2] = system: nandinine; assay: CYP719 Ring B closure of nandinine to stylopine in GC1333
Method: (§1) FIG. 11A-B: showing conversion of (S)-cheilanthifoline (FIG. 11A) or (S)-nandinine (FIG. 11B) to (S)-stylopine by purchased CYP719s. Plasmids harboring CYP719s were transformed into GC1333 containing an integrated PsCPR. Strains were incubated with the appropriate BIA overnight, and then total BIAs were extracted and total molar ratios were compared. PsSPSΔN was used as a control.
(§2) The 10 CYP719s with 95% activity on Ring A of scoulerine and the 10 CYP719s with activity on Ring B of scoulerine were tested for activity on cheilanthifoline and nandinine, respectively, in order to generate a branched stylopine synthesis pathway. […] CYP719s PsCFS and EX101, capable of converting >98% of scoulerine to cheilanthifoline and nandinine, respectively, were incubated with scoulerine. After 16 h, cells were pelleted and the supernatant fraction was collected. The supernatant was then applied to fresh yeast strains in order to supplement them with either TE containing nandinine or cheilanthifoline as necessary.

[3] = system: cheilanthifoline; assay: CYP719 Ring A closure of cheilanthifoline to stylopine in GC1333
Method: as §1, §2

[4] = system: scoulerine; assay: CYP719s in GC1316 (integrated PsCPR and PsCFS) supplemented with scoulerine; conditions: CYP719 expressed with PsCFS and PsCPR
Excerpt: Plasmids harboring CYP719s were transformed into either GC1333 containing an integrated PsCPR (FIG. 10A) or GC1316 containing an integrated PsCPR and an integrated PsCFS (FIG. 10B). Strain GC1333, harboring PsCPR integrated into the chromosome, was transformed with pBOT plasmids, with GFP removed, harboring individual CYP719s (CYP719 EX41-105). (See Tables 7-8 below presenting the nature and activity of these CYP719s).
Plasmids harboring individual CYP719s were transformed into strain GC1316, which harbored PsCPR and PsCFS integrated into the genome. Strains were supplemented with scoulerine and after 16 hours total BIAs were extracted and the molar ratio was compared (FIG. 10B). The four possible BIAs that could be extracted were scoulerine, the single Ring A product nandinine, the single Ring B product cheilanthifoline, and the double Ring A, Ring B product stylopine.

Molecule | fraction in which the BIA is mainly found (supernatant or cell extract) ([1]; 16 hours) | residual cheilanthifoline [4] | further results
Oc1ccc(CC2NCCc3cc(O)c(O)cc32)cc1O (racemic) [(R,S)-norlaudanosoline] |  |  | share of fed BIA found in the cell extract after 16 hours of incubation ([1]; wild-type / negative control cells, 16 hours): 10%; share of fed BIA found in the cell extract, initially ([1]; wild-type cells, 0 hours): 3%
c1cc2c(c3c1C[C@H]1c4cc5c(cc4CCN1C3)OCO5)OCO2 [(S)-stylopine] | predominantly found in the cell extract; also recorded: mostly found in the cellular extract fraction |  | 
COc1cc2c(cc1O)C1Cc3ccc4c(c3CN1CC2)OCO4 (stereo not drawn) [Cheilanthifoline, cheilanthifoline] | mainly found in the supernatant |  | 
C[N@@+]12CCc3cc4c(cc3[C@@H]1Cc1ccc3c(c1C2)OCO3)OCO4 [N-methylstylopine] |  |  | share of BIA found in the culture supernatant ([1]; Block 3 feeding assay, 16 hours): Approximately 55%
CN1Cc2c(ccc3c2OCO3)-c2ccc3cc4c(cc3c21)OCO4 [dihydrosanguinarine] | mostly found in the cellular extract fraction |  | 
B1 |  |  | conversion of nandinine to stylopine [2]: > 98%
B2 |  | residual cheilanthifoline was detected | conversion of cheilanthifoline to stylopine [3]: > 98%
B3 |  | residual cheilanthifoline was detected | 
B4 |  |  | conversion of nandinine to stylopine [2]: > 98%
B5 |  | residual cheilanthifoline was detected | 

— patent publication US20160340704A1, “METHOD OF MAKING A BENZYLISOQUINOLINE ALKALOID (BIA) METABOLITE, ENZYMES THEREFORE” (VALORBEC SOCIÉTÉ EN COMMANDITE, priority 2014, published 2016)
